# Experimental data from patent US4163662A, “Liquid formulations of 1-(3,4-dichlorophenyl)-3-methoxy-3-methylurea and selected chloroacetamides” (E. I. Du Pont de Nemours and Company, priority 1977, dated 1979).
# Key:
# Assay type in all cases: physicochemical
# [1] = Cold Storage Test at -5° C., propachlor/linuron in trichloroethylene (Table I); conditions: for Max. Stable concentration (no crystallization) / Min. Unstable concentration (crystals first appear): total active ingredient
# From the text: The temperature limits below which crystallization of solute will occur can be measured by storing samples in a controlled temperature chest, seeding with tiny crystals of pure materials and observing the growth or disappearance of crystals after a period of several days. If no crystals form, the process is then repeated at a lower temperature, until the limit of stability has been found. However, crystallization characteristics can be also meaningfully, rapidly and conveniently measured by a determination of the cloud point of the system.
# (§1) Purified linuron, purified propachlor, purified alachlor and commercial "Triclene" (trichloroethylene, technical) are used in the procedure. Samples containing various ratios and concentrations of linuron, propachlor, and linuron-propachlor mixtures are placed in a cold chest. The temperature is lowered and samples are seeded with traces of dust of the active ingredients after the solution has been cooled to the test temperature of -5° C. The samples are then observed over the course of at least 3 to 4 days to determine whether crystallization has occurred. When the temperature of the system is maintained within the range of -4.5° to -5.0° C. for 4 days after seeding. The maximum solution concentration in grams of active ingredient per 100 grams of solvent, at which no crystallization occurs (Max. Stable), and the minimum solution concentration at which crystals first appear (Min. Unstable) are observed.
# [2] = Cold Storage Test at 3° C. and at -8° to -9° C., alachlor/linuron (Table II); conditions: for Max. Stable concentration / Min. Unstable concentration: total active ingredient
# Procedure: as §1
# A similar test was run replacing propachlor with alachlor and at ^+ 3° C. and at -8° to -9° C. with the following results: […]
# [3] = Amount of insoluble crystalline material after room temperature storage (Tables III, IV, V)
# Procedure: Samples weighing 5 grams each total weight were prepared by mixing the indicated solids and liquids, in the indicated proportions and shaking in closed vials, which were sealed with epoxy cement to prevent evaporation.
# Tables III, IV, and V show the proportions of each mixture and the amounts of insoluble, crystalline material observed in each case after room temperature storage: […]
Compound,"Max. Solubility Range, Linuron [1]",Max. Stable concentration (no crystallization) [1] [grams/100 grams Solvent],Min. Unstable concentration (crystals first appear) [1] [grams/100 grams Solvent],Max. Solubility Range For Linuron ([2]; 3° C.),Max. Stable concentration ([2]; 3° C.) [grams/100 grams Solvent],Min. Unstable concentration ([2]; 3° C.) [grams/100 grams Solvent],Max. Solubility Range For Linuron ([2]; -8° to -9° C.),Max. Stable concentration ([2]; -8° to -9° C.) [grams/100 grams Solvent],Min. Unstable concentration ([2]; -8° to -9° C.) [grams/100 grams Solvent],"crystalline material ([3]; 5 weight % linuron, 95% tetrachloroethylene, room temperature)","crystalline material ([3]; 9 weight % linuron, 91% tetrachloroethylene, room temperature)","crystalline material ([3]; 9 weight % linuron, 91% xylene, room temperature)","crystalline material ([3]; 10 weight % linuron, 90% ""Panasol"" AN-3, room temperature)","crystalline material ([3]; 15 weight % linuron, 85% ""Panasol"" AN-3, room temperature)","crystalline material ([3]; 17 weight % linuron, 83% xylene, room temperature)","dissolution result on shaking in the solvent ([3]; hydrocarbons and halocarbons, room temperature)","Max. Solubility Range, Propachlor [1]","crystalline material ([3]; 18 weight % propachlor, 82% tetrachloroethylene, room temperature)","crystalline material ([3]; 30 weight % propachlor, 70% ""Panasol"" AN-3, room temperature)","crystalline material ([3]; 34 weight % propachlor, 66% xylene, room temperature)"
"CON(C)C(=O)Nc1ccc(Cl)c(Cl)c1 [Linuron, 1-(3,4-dichlorophenyl)-3-methoxy-3-methylurea]",4.1-5.2 grams/100 grams Solvent,4.1,5.2,4.1-4.7 grams/100 grams Solvent,4.1,4.7,3.6-4.1 grams/100 grams Solvent,3.6,4.1,moderate,heavy,slight,moderate,heavy,heavy,crystals remained,,,,
"CC(C)N(C(=O)CCl)c1ccccc1 [Propachlor, 2-chloro-N-isopropylacetanilide]",,21.9,25,,,,,,,,,,,,,,21.9-25 grams/100 grams Solvent,moderate,moderate,moderate
